{"source": "patent US6709679B2", "about": "“Antineoplastic conjugates of transferin, albumin and polyethylene glycol” (priority 1996, dated 2004)", "test_system": "mammary carcinoma MCF-7", "experiment": "xeno-transplantable naked-mouse model, mammary carcinoma MCF-7 s.c.", "assay_type": "in vivo, mice (Ncr:nu/nu female)", "experimental": "The dose refers to the amount of doxorubicin available. […] In the case of the highest dose employed in the experiment (12 mg/kg), there appears a very high lethalness (5 of 7 and 7 of 7 animals, respectively) in the therapy with doxorubicin.", "data": [{"smiles": "COc1cccc2c1C(=O)c1c(O)c3c(c(O)c1C2=O)C[C@@](O)(C(=O)CO)C[C@@H]3O[C@H]1C[C@H](N)[C@H](O)[C@H](C)O1", "note": "[doxorubicin]", "values": [{"measurement": "optimum TIC (%)", "setting": "dose 4 mg/kg/inj. i.v. day 16 and 23", "value": 61, "unit": "%"}, {"measurement": "optimum TIC (%)", "setting": "dose 8 mg/kg/inj. i.v. day 16 and 23", "value": 39, "unit": "%"}, {"measurement": "mortality (d)", "setting": "dose 8 mg/kg/inj. i.v. day 16 and 23, number of deaths (day), 8 mice", "value": "1 (26)"}, {"measurement": "mortality (d)", "setting": "dose 12 mg/kg/inj. i.v. day 16 and 23, number of deaths (days), 7 mice", "value": "7 (25-33)"}]}]}
